Reference: patent US5216005A, “Immunosuppressive analogues and derivatives of succinylacetone” (priority 1990, dated 1993)

How the values were obtained:
human lymphocytes [1] = assay: tritiated thymidine uptake in primary mixed lymphocyte reaction; format: cell-based; details: for CPM ± SD: 1° MLR
From the text: The in vitro mixed lymphocyte assay described below is presently employed in the clinical setting as an indicator of histocompatibility, and is premised on the transformation of resting genetically dissimilar lymphocytes into cells which synthesize DNA and undergo proliferation.
The mixed lymphocyte reaction assay can be carried out by techniques well known to those skilled in the art. L. Hudson and F. C. Huy, Practical Immunology, p. 260, Blackwell Scientific Publications (1976). Briefly this consists of isolating lymphocytes from human peripheral blood by standard density gradient centrifugation techniques from two separate individuals. Approximately 2×10^5 lymphocytes of each individual are combined to yield a total of 4×10^5 lymphocytes per culture. All procedures are carried out under sterile conditions, and the lymphocytes are isolated and kept in physiologically compatible solutions. To the mixture of lymphocytes is added a desired amount of an appropriate succinylacetone derivative, and after different times an aliquot of the mixture is removed and assayed for IL-2 or IFN-γ, or ^3 H-T is measured.
As mentioned above, one measure of an immune response as reflected in a mixed lymphocyte assay is the stimulation of DNA synthesis, and a concomitant increase in cell number. Thus, to further ascertain the immunosuppressive activity of succinylacetonyl-proline-NH-PEG, its effect on inhibition of thymocyte growth, as detected by uptake of tritiated thymidine, was assayed.

human lymphocytes [2] = assay: phytohemagglutinin (PHA) stimulation assay, tritiated thymidine uptake; format: cell-based; details: for IC50: Homo sapiens, Lymphocyte, read-out: concentration causing 50% inhibition of PHA stimulation
Description: A second assay widely used to study immune responsiveness is mitogenic stimulation of thymocytes with antigenic substances of plant origin. The most widely used plant molecule is phytohemagglutinin (PHA).
The procedure for carrying out the phytohaemagglutinin assay is also well known to those skilled in the art. Briefly, it consists of isolating human lymphocytes as described above, and incubating about 1.0×10^6 cells per ml in a suitable physiological solution with phytohaemagglutinin, and the appropriate concentration of succinylacetone-proline-NH-PEG. Tritiated thymidine is added 48 hours later and allowed to incubate for twenty-four hours before the cells are counted.

[3] = system: adjuvant induced arthritis; assay: adjuvant induced arthritis in rats, overall arthritis score; intraarticular right paw, per kg: succinylacetone 325 μg, methyl ester 150 μg, 4-acetyl-5-oxohexanoate 560 μg; format: in vivo, rat
human lymphoid cells = assay: tritiated thymidine uptake in secondary mixed lymphocyte reaction; format: cell-based; details: 2°-MLR; for inhibition at 740 µM / inhibition at 2200 µM / inhibition at 6700 µM / inhibition at 20000 µM: Homo sapiens, Lymphocyte
Description: In addition to testing the immunosuppressive activities of succinylacetone derivatives in a primary mixed lymphocyte reaction, or a phytohemagglutinin stimulation assay, two of the derivatives, succinylacetone methyl ester and methyl 4-acetyl-5-oxohexanoate, were tested in a secondary mixed lymphocyte reaction assay. The secondary mixed lymphocyte assays differs from the primary mixed lymphocyte reaction assays in that they employ many more primed responder cells that are responsive to the primary stimulating cells. The presence of such responsive cells is a reflection of immunological memory in an ongoing immunological response. […] These cells are then used in the secondary mixed lymphocyte reaction. It is worth noting that because a secondary mixed lymphocyte reaction is greatly enriched for responsive cells, fewer cells can be used in the secondary assay.
It will be appreciated that described therein is a method for carrying out secondary lymphocyte reactions using mouse cells, however such methods are generally applicable to performing secondary mixed lymphocyte reactions using human cells with modifications that are well known to those skilled in the art. […] The assays were conducted in duplicate involving lymphoid cells isolated from two individuals.

COC(=O)CCC(=O)CC(C)=O [Succinylacetone Methyl Ester, methyl 4-6-dioxoheptanoate]
CPM ± SD (human lymphocytes [1]; Exp I, 3 μM): 81740 CPM
CPM ± SD (human lymphocytes [1]; Exp I, 9 μM): 87101 CPM
CPM ± SD (human lymphocytes [1]; Exp I, 27 μM): 75211 CPM
CPM ± SD (human lymphocytes [1]; Exp I, 81 μM): 80182 CPM
CPM ± SD (human lymphocytes [1]; Exp I, 244 μM): 66159 CPM
CPM ± SD (human lymphocytes [1]; Exp I, 733 μM): 30535 CPM
CPM ± SD (human lymphocytes [1]; Exp I, 2.2 mM): 3185 CPM
CPM ± SD (human lymphocytes [1]; Exp I, 6.7 mM): 89 CPM
CPM ± SD (human lymphocytes [1]; Exp I, 20 mM): 164 CPM
CPM ± SD (human lymphocytes [1]; Exp II, 3 μM): 114428 CPM
CPM ± SD (human lymphocytes [1]; Exp II, 9 μM): 110425 CPM
CPM ± SD (human lymphocytes [1]; Exp II, 27 μM): 97879 CPM
CPM ± SD (human lymphocytes [1]; Exp II, 81 μM): 87595 CPM
CPM ± SD (human lymphocytes [1]; Exp II, 244 μM): 78306 CPM
CPM ± SD (human lymphocytes [1]; Exp II, 733 μM): 40700 CPM
CPM ± SD (human lymphocytes [1]; Exp II, 2.2 mM): 33497 CPM
CPM ± SD (human lymphocytes [1]; Exp II, 6.7 mM): 126 CPM
CPM ± SD (human lymphocytes [1]; Exp II, 20 mM): 90 CPM
IC50 (human lymphocytes [1]; Homo sapiens, Lymphocyte, read-out: concentration for 50% reduction in thymidine uptake): ~733 µM
IC50 (human lymphocytes [2]; one assay): 103 to 309 µM
IC50 (human lymphocytes [2]; second assay): ~103 µM
PHA stimulation, cpm ± SD (human lymphocytes [2]; first experiment, 3.8 μM): 20292 cpm
PHA stimulation, cpm ± SD (human lymphocytes [2]; first experiment, 11 μM): 18100 cpm
PHA stimulation, cpm ± SD (human lymphocytes [2]; first experiment, 34 μM): 16549 cpm
PHA stimulation, cpm ± SD (human lymphocytes [2]; first experiment, 103 μM): 17595 cpm
PHA stimulation, cpm ± SD (human lymphocytes [2]; first experiment, 309 μM): 5927 cpm
PHA stimulation, cpm ± SD (human lymphocytes [2]; first experiment, 962 μM): 565 cpm
PHA stimulation, cpm ± SD (human lymphocytes [2]; first experiment, 2.8 mM): 126 cpm
PHA stimulation, cpm ± SD (human lymphocytes [2]; first experiment, 25 mM): 113 cpm
PHA stimulation, cpm ± SD (human lymphocytes [2]; first experiment, 83 mM): 79 cpm
PHA stimulation, cpm ± SD (human lymphocytes [2]; second experiment, 3.8 μM): 37936 cpm
PHA stimulation, cpm ± SD (human lymphocytes [2]; second experiment, 11 μM): 28645 cpm
PHA stimulation, cpm ± SD (human lymphocytes [2]; second experiment, 34 μM): 28614 cpm
PHA stimulation, cpm ± SD (human lymphocytes [2]; second experiment, 103 μM): 17733 cpm
PHA stimulation, cpm ± SD (human lymphocytes [2]; second experiment, 309 μM): 5292 cpm
PHA stimulation, cpm ± SD (human lymphocytes [2]; second experiment, 962 μM): 6949 cpm
PHA stimulation, cpm ± SD (human lymphocytes [2]; second experiment, 2.8 mM): 65 cpm
PHA stimulation, cpm ± SD (human lymphocytes [2]; second experiment, 25 mM): 112 cpm
PHA stimulation, cpm ± SD (human lymphocytes [2]; second experiment, 83 mM): 107 cpm
overall arthritis score ([3]; Exp. I (treated from same day), day 14): 2.4 ± 2.5
overall arthritis score ([3]; Exp. I (treated from same day), day 16): 2.8 ± 2.4
overall arthritis score ([3]; Exp. I (treated from same day), day 18): 3.4 ± 1.9
overall arthritis score ([3]; Exp. I (treated from same day), day 20): 6.4 ± 3.6
overall arthritis score ([3]; Exp. I (treated from same day), day 22): 6.8 ± 4.0
overall arthritis score ([3]; Exp. I (treated from same day), day 24): 7.2 ± 4.1
overall arthritis score ([3]; Exp. I (treated from same day), day 26): 6.2 ± 3.7
overall arthritis score ([3]; Exp. II (treated from day 4), day 14): 1.6 ± 2.6
overall arthritis score ([3]; Exp. II (treated from day 4), day 16): 2 ± 2.8
overall arthritis score ([3]; Exp. II (treated from day 4), day 18): 3.2 ± 4.0
overall arthritis score ([3]; Exp. II (treated from day 4), day 20): 4.0 ± 4.6
overall arthritis score ([3]; Exp. II (treated from day 4), day 22): 4.8 ± 4.1
overall arthritis score ([3]; Exp. II (treated from day 4), day 24): 4.8 ± 4.1
overall arthritis score ([3]; Exp. II (treated from day 4), day 26): 5.6 ± 4.7
overall arthritis score ([3]; Exp. III (treated from day 14), day 14): 1.2 ± 1.8
overall arthritis score ([3]; Exp. III (treated from day 14), day 16): 1.4 ± 1.3
overall arthritis score ([3]; Exp. III (treated from day 14), day 18): 1.4 ± 2.2
overall arthritis score ([3]; Exp. III (treated from day 14), day 20): 4.8 ± 3.8
overall arthritis score ([3]; Exp. III (treated from day 14), day 22): 4.4 ± 3.6
overall arthritis score ([3]; Exp. III (treated from day 14), day 24): 4.4 ± 3.6
overall arthritis score ([3]; Exp. III (treated from day 14), day 26): 3.0 ± 3.3
effect on arthritis ([3]; comparison of treatment schedules, in words): most effective when it is administered 14 days after induction of the disease
CPM (human lymphoid cells; Exp I, 247 μM): 87337 CPM
CPM (human lymphoid cells; Exp I, 740 μM): 67456 CPM
CPM (human lymphoid cells; Exp I, 2.2 mM): 11778 CPM
CPM (human lymphoid cells; Exp I, 6.7 mM): 51 CPM
CPM (human lymphoid cells; Exp I, 20 mM): 64 CPM
CPM (human lymphoid cells; Exp II, 247 μM): 125345 CPM
CPM (human lymphoid cells; Exp II, 740 μM): 85447 CPM
CPM (human lymphoid cells; Exp II, 2.2 mM): 29851 CPM
CPM (human lymphoid cells; Exp II, 6.7 mM): 62 CPM
CPM (human lymphoid cells; Exp II, 20 mM): 87 CPM
inhibition at 740 µM (human lymphoid cells; Exp I, 740 μM): 16.3%
inhibition at 2200 µM (human lymphoid cells; Exp I, 2.2 mM): 85.4%
inhibition at 6700 µM (human lymphoid cells; Exp I, 6.7 mM): 9.99%
inhibition at 20000 µM (human lymphoid cells; Exp I, 20 mM): 99.9%
inhibition at 740 µM (human lymphoid cells; Exp II, 740 μM): 8.5%
inhibition at 2200 µM (human lymphoid cells; Exp II, 2.2 mM): 68%
inhibition at 6700 µM (human lymphoid cells; Exp II, 6.7 mM): 9.99%
inhibition at 20000 µM (human lymphoid cells; Exp II, 20 mM): 99.9%
